Experimental data published in PubChem BioAssay (NCI).
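Briefly, cells in 96-well plates were exposed to five compound concentrations for 48 h, and endpoints were estimated by linear interpolation. TGI: total growth inhibition.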

Legend:
Assay in all cases: DTP human tumour cell line panel, 48 h
IGROV1 ovarian = tested on: IGROV1 ovarian
OVCAR-4 ovarian = tested on: OVCAR-4 ovarian
HOP-92 NSCLC = tested on: HOP-92 NSCLC
COLO 205 colon = tested on: COLO 205 colon
EKVX NSCLC = tested on: EKVX NSCLC
NCI-H522 lung = tested on: NCI-H522 lung
LXFL 529 NSCLC = tested on: LXFL 529 NSCLC
KM12 colon = tested on: KM12 colon
UACC-62 melanoma = tested on: UACC-62 melanoma
UACC-257 melanoma = tested on: UACC-257 melanoma
HT29 colon = tested on: HT29 colon
SW-620 colon = tested on: SW-620 colon
MALME-3M melanoma = tested on: MALME-3M melanoma
M19-MEL melanoma = tested on: M19-MEL melanoma
M14 melanoma = tested on: M14 melanoma
U251 CNS = tested on: U251 CNS
HL-60(TB) leukemia = tested on: HL-60(TB) leukemia
SF-295 CNS = tested on: SF-295 CNS
SK-MEL-28 melanoma = tested on: SK-MEL-28 melanoma
SF-539 CNS = tested on: SF-539 CNS
HOP-62 NSCLC = tested on: HOP-62 NSCLC
HCT-116 colon = tested on: HCT-116 colon
NCI-H460 lung = tested on: NCI-H460 lung
SK-OV-3 ovarian = tested on: SK-OV-3 ovarian
NCI-H23 lung = tested on: NCI-H23 lung
XF 498 CNS = tested on: XF 498 CNS
SNB-75 CNS = tested on: SNB-75 CNS
OVCAR-3 ovarian = tested on: OVCAR-3 ovarian
SR leukemia = tested on: SR leukemia
SNB-19 CNS = tested on: SNB-19 CNS
K-562 leukemia = tested on: K-562 leukemia
UO-31 renal = tested on: UO-31 renal
TK-10 renal = tested on: TK-10 renal
MOLT-4 leukemia = tested on: MOLT-4 leukemia
OVCAR-8 ovarian = tested on: OVCAR-8 ovarian
A549 NSCLC = tested on: A549 NSCLC
SF-268 CNS = tested on: SF-268 CNS
SK-MEL-5 melanoma = tested on: SK-MEL-5 melanoma
CCRF-CEM leukemia = tested on: CCRF-CEM leukemia
RXF 393 renal = tested on: RXF 393 renal
KM20L2 colon = tested on: KM20L2 colon
SN12C renal = tested on: SN12C renal
SK-MEL-2 melanoma = tested on: SK-MEL-2 melanoma
DMS 114 small cell lung = tested on: DMS 114 small cell lung
RPMI-8226 leukemia = tested on: RPMI-8226 leukemia
HCT-15 colon = tested on: HCT-15 colon
ACHN renal = tested on: ACHN renal
A498 renal = tested on: A498 renal
DLD-1 colon = tested on: DLD-1 colon
HCC-2998 colon = tested on: HCC-2998 colon
CAKI-1 renal = tested on: CAKI-1 renal
LOX IMVI melanoma = tested on: LOX IMVI melanoma
OVCAR-5 ovarian = tested on: OVCAR-5 ovarian
SNB-78 CNS = tested on: SNB-78 CNS
786-0 renal = tested on: 786-0 renal
NCI-H226 lung = tested on: NCI-H226 lung
HOP-18 NSCLC = tested on: HOP-18 NSCLC
DMS 273 small cell lung = tested on: DMS 273 small cell lung

Measured: TGI

O=C1C(Cl)N(c2ccc(Cl)cc2Cl)C1c1c[nH]c2ccccc12 (centres undefined)
> 100 µM: IGROV1 ovarian | OVCAR-4 ovarian | HOP-92 NSCLC | COLO 205 colon | EKVX NSCLC | NCI-H522 lung | LXFL 529 NSCLC | KM12 colon | UACC-62 melanoma | UACC-257 melanoma | HT29 colon | SW-620 colon | MALME-3M melanoma | M19-MEL melanoma | M14 melanoma | U251 CNS | HL-60(TB) leukemia | SF-295 CNS | SK-MEL-28 melanoma | SF-539 CNS | HOP-62 NSCLC | HCT-116 colon | NCI-H460 lung | SK-OV-3 ovarian | NCI-H23 lung | XF 498 CNS | SNB-75 CNS | OVCAR-3 ovarian | SR leukemia | SNB-19 CNS | K-562 leukemia | UO-31 renal | TK-10 renal | MOLT-4 leukemia | OVCAR-8 ovarian | A549 NSCLC | SF-268 CNS | SK-MEL-5 melanoma | CCRF-CEM leukemia | RXF 393 renal | KM20L2 colon | SN12C renal | SK-MEL-2 melanoma | DMS 114 small cell lung | RPMI-8226 leukemia

O=C1CCC2(c3ccc(F)cc3)Nc3ncccc3N12 (centres undefined)
> 100 µM: IGROV1 ovarian | OVCAR-4 ovarian | HOP-92 NSCLC | COLO 205 colon | HCT-15 colon | EKVX NSCLC | NCI-H522 lung | LXFL 529 NSCLC | KM12 colon | UACC-62 melanoma | UACC-257 melanoma | HT29 colon | ACHN renal | SW-620 colon | MALME-3M melanoma | M19-MEL melanoma | M14 melanoma | U251 CNS | A498 renal | HL-60(TB) leukemia | SF-295 CNS | SK-MEL-28 melanoma | SF-539 CNS | DLD-1 colon | HOP-62 NSCLC | NCI-H460 lung | NCI-H23 lung | XF 498 CNS | SNB-75 CNS | OVCAR-3 ovarian | HCC-2998 colon | K-562 leukemia | UO-31 renal | TK-10 renal | MOLT-4 leukemia | OVCAR-8 ovarian | CAKI-1 renal | A549 NSCLC | SF-268 CNS | SK-MEL-5 melanoma | LOX IMVI melanoma | CCRF-CEM leukemia | OVCAR-5 ovarian | SNB-78 CNS | RXF 393 renal | 786-0 renal | KM20L2 colon | SN12C renal | SK-MEL-2 melanoma | NCI-H226 lung | RPMI-8226 leukemia

O=C(c1cccs1)N(C(=S)N1CCN(c2ccccc2)CC1)C1CCCCC1
> 100 µM: IGROV1 ovarian | OVCAR-4 ovarian | HOP-92 NSCLC | COLO 205 colon | HCT-15 colon | NCI-H522 lung | LXFL 529 NSCLC | KM12 colon | UACC-62 melanoma | UACC-257 melanoma | HT29 colon | ACHN renal | SW-620 colon | MALME-3M melanoma | M19-MEL melanoma | M14 melanoma | U251 CNS | HL-60(TB) leukemia | SF-295 CNS | SK-MEL-28 melanoma | SF-539 CNS | DLD-1 colon | HOP-62 NSCLC | HCT-116 colon | NCI-H460 lung | SK-OV-3 ovarian | NCI-H23 lung | SNB-75 CNS | OVCAR-3 ovarian | SR leukemia | SNB-19 CNS | K-562 leukemia | UO-31 renal | TK-10 renal | HOP-18 NSCLC | MOLT-4 leukemia | OVCAR-8 ovarian | CAKI-1 renal | A549 NSCLC | DMS 273 small cell lung | SF-268 CNS | SK-MEL-5 melanoma | LOX IMVI melanoma | CCRF-CEM leukemia | OVCAR-5 ovarian | SNB-78 CNS | RXF 393 renal | 786-0 renal | KM20L2 colon | SN12C renal | SK-MEL-2 melanoma | DMS 114 small cell lung | RPMI-8226 leukemia
